Reference: patent US11034672B1, “Tyrosine kinase inhibitor compositions, methods of making and methods of use” (Black Diamond Therapeutics, Inc., priority 2018, dated 2021)

Tests used:
Assay type in all cases: cell-based
EGFR V3 [1] = target: T1, EGFR V3 (Homo sapiens, UniProt P00533, DELINS30-297G); assay: BaF3 cell proliferation assay, EGFR V3 (Table A); conditions: potency code, 3 days, CellTiterGlo, read-out: EGFR V3 (Activity for Inhibiting EGFR)
T1 construct: expressed in transfected cells; host or cells: BaF3 (murine pro-B), retroviral pMXs-IRES-Blasticidin
T1 sequence (P00533 with tags, fused parts or gaps DELINS30-297G): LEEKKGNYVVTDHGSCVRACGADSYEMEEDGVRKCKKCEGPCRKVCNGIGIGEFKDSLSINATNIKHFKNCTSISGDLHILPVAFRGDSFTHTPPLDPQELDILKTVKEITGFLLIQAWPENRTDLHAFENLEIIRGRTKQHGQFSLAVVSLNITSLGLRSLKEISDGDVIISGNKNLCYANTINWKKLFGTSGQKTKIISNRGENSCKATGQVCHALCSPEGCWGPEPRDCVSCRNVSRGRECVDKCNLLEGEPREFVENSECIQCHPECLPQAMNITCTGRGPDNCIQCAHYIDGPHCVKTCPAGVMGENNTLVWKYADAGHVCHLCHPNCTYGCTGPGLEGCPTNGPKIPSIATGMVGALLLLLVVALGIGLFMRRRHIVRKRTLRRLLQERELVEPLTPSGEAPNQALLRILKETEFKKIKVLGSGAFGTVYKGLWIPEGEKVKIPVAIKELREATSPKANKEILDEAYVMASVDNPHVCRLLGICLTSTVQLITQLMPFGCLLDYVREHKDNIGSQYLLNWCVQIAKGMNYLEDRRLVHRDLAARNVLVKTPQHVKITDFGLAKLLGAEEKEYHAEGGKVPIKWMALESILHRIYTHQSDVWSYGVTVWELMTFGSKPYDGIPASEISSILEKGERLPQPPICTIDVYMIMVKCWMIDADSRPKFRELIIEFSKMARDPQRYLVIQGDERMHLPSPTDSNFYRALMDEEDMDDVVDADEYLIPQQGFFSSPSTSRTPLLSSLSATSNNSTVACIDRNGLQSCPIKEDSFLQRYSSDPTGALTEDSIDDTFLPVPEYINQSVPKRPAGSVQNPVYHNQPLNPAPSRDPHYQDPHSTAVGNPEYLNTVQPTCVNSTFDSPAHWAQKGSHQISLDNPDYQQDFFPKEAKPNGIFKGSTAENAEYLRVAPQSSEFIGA
Method: (§1) Retroviral Production: EGFR mutants were subcloned into pMXs-IRES-Blasticidin (RTV-016, Cell Biolabs, San Diego, Calif.). Retroviral expression vector retrovirus was produced by transient transfection of HEK 293T cells with the retroviral EGFR mutant expression vector pMXs-IRES-Blasticidin (RTV-016, Cell Biolabs), pCMV-Gag-Pol vector and pCMV-VSV-G-Envelope vector. Briefly, HEK 293T/17 cells were plated in 100 mm collagen coated plate (354450, Corning Life Sciences, Tewksbury, Mass.) (4×10^5 per plate) and incubated overnight. The next day, retroviral plasmids (3 μg of EGFR mutant, 1.0 μg of pCMV-Gag-Pol and 0.5 μg pCMV-VSV-G) were mixed in 500 μl of Optimem (31985, Life Technologies). The mixture was incubated at room temperature for 5 min and then added to Optimem containing transfection reagent Lipofectamine (11668, Invitrogen) and incubated for 20 minutes. Mixture was then added dropwise to HEK 293T cells. The next day the medium was replaced with fresh culture medium and retrovirus was harvested @ 24 and 48 hrs.
(§2) Generation of EGFR mutant stable cell lines: BaF3 cells (1.5E5 cells) were infected with 1 ml of viral supernatant supplemented with 8 μg/ml polybrene by centrifuging for 30 min at 1000 rpm. Cells were placed in a 37° C. incubator overnight. Cells were then spun for 5 minutes to pellet the cells. Supernatant was removed and cells re-infected a fresh 1 ml of viral supernatant supplemented with 8 μg/ml polybrene by centrifuging for 30 min at 1000 rpm. Cells were placed in 37° C. incubator overnight. […] After 48 hours cells were selected for retroviral infection in 10 μg/ml Blasticidin for one week. Blasticidin resistant populations were washed twice in phosphate buffered saline before plating in media lacking IL-3 to select for IL-3 independent growth.
(§3) EC50 values were determined with the same application.

HER2 YVMA [2] = target: T2, HER2 YVMA (Homo sapiens, UniProt P04626, INS775YVMA); assay: Activity for inhibiting HER2 (Table B), HER2 YVMA; conditions: read-out: HER2 YVMA, potency code (IC50)
T2 construct: expressed in transfected cells; host or cells: BaF3 (murine pro-B)
T2 sequence (P04626 with tags, fused parts or gaps INS775YVMA): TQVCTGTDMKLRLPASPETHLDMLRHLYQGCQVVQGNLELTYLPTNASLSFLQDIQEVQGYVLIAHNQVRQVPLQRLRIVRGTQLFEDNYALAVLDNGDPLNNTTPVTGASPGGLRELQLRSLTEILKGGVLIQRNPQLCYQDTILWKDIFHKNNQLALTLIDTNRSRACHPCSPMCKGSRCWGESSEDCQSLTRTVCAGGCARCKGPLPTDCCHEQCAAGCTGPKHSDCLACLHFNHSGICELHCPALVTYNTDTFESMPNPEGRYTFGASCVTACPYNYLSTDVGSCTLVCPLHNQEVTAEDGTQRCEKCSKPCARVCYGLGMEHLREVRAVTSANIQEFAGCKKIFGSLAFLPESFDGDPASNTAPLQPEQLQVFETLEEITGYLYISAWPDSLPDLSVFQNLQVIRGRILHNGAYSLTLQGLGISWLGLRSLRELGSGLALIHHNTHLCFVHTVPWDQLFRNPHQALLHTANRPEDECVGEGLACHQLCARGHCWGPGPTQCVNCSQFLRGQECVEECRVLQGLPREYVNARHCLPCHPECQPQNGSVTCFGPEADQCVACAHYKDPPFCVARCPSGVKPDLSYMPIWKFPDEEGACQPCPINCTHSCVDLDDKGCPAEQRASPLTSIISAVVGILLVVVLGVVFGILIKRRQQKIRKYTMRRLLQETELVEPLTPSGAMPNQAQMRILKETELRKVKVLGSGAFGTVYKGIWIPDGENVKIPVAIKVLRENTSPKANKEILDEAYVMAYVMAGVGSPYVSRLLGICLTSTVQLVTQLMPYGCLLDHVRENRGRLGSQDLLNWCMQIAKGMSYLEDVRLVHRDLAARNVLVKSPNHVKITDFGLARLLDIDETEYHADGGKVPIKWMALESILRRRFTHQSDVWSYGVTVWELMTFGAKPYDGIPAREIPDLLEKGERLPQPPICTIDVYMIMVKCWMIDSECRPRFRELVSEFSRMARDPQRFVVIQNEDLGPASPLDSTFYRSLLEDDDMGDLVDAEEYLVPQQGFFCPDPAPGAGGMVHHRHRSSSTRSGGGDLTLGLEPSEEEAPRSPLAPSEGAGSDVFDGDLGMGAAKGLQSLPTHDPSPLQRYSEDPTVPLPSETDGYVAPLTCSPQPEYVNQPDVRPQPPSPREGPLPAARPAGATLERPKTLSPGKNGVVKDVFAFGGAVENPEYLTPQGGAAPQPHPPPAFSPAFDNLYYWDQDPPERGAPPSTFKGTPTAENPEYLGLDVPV
Method: as §3

HER2 S310F [3] = target: T3, HER2 S310F (Homo sapiens, UniProt P04626, S310F); assay: BaF3 cell proliferation assay, HER2 S310F (Table B); conditions: potency code, 3 days, CellTiterGlo, read-out: HER2 S310F (Activity for Inhibiting HER2)
T3 construct: expressed in transfected cells; host or cells: BaF3 (murine pro-B)
T3 sequence (P04626 23-1255 S310F): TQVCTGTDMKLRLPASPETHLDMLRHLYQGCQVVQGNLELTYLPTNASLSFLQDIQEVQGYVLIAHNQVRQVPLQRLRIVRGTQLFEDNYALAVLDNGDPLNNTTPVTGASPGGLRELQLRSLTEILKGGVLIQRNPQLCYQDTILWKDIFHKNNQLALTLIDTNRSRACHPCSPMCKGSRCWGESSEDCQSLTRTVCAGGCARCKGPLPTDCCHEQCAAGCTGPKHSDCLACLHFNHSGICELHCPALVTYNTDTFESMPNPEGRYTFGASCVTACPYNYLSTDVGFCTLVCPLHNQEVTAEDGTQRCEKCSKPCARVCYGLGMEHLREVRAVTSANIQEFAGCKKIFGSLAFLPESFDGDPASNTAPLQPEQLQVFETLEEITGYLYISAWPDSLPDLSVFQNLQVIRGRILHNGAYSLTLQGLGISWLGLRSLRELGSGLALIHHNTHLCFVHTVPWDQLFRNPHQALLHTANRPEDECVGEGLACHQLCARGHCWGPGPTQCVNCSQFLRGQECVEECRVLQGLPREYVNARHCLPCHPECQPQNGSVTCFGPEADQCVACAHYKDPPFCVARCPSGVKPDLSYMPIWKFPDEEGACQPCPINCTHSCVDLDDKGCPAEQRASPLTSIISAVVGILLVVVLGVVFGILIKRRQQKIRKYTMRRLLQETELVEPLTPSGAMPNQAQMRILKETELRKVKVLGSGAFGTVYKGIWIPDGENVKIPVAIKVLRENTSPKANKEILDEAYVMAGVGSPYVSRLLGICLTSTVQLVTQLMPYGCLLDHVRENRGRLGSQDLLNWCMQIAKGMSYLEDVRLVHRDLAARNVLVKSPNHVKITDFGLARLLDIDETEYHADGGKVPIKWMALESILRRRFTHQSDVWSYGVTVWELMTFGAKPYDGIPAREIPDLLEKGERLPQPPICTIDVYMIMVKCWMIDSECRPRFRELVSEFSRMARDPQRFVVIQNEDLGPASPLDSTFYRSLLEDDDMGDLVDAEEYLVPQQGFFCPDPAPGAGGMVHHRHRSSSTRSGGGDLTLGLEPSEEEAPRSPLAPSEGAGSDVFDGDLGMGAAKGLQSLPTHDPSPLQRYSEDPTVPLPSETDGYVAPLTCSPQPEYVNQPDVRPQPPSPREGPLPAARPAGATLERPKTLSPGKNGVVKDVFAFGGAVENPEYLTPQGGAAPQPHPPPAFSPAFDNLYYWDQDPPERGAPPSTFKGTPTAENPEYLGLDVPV

EGFR WT [4] = target: T4, EGFR WT (Homo sapiens, UniProt P00533); assay: BaF3 cell proliferation assay, EGFR WT (Table A); conditions: potency code, 3 days, CellTiterGlo, read-out: EGFR WT (Activity for Inhibiting EGFR)
T4 sequence (P00533 25-1210 N540K): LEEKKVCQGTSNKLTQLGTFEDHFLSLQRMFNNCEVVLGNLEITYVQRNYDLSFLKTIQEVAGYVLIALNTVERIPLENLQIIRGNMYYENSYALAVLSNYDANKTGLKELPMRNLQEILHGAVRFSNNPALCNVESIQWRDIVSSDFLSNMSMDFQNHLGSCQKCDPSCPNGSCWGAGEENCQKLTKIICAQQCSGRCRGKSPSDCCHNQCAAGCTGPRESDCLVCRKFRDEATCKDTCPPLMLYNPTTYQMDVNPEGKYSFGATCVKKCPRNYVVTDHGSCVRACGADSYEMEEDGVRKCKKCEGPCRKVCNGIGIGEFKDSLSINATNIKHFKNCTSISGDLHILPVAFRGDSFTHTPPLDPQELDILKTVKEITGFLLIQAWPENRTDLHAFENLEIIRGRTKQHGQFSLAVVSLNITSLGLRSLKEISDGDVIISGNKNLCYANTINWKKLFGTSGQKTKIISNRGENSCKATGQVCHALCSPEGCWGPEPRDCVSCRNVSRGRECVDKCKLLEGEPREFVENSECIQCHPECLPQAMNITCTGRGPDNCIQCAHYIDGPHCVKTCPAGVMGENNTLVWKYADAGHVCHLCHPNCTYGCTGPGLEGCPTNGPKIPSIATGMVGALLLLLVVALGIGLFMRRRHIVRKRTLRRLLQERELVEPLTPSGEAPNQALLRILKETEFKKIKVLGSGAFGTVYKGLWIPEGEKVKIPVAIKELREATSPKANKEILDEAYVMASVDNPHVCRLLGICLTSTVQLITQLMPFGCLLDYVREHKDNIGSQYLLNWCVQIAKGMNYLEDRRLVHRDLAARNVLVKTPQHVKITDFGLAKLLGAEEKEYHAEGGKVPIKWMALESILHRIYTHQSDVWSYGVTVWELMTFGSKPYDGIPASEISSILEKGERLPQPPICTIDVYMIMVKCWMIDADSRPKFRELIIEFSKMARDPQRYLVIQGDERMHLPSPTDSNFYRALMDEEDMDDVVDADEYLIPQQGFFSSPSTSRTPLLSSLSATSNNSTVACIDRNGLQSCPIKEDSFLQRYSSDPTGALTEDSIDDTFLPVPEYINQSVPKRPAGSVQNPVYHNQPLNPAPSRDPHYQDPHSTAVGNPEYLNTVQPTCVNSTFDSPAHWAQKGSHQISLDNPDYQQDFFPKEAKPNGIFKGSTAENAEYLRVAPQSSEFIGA
Method: as §1, §2, §3

HER2 YVMA [5] = target: T2, HER2 YVMA; assay: BaF3 cell proliferation assay, HER2 YVMA (Table B); conditions: potency code, 3 days, CellTiterGlo, read-out: HER2 YVMA (Activity for Inhibiting HER2)
EGFR WT [6] = target: T4, EGFR WT; assay: Activity for inhibiting EGFR (Table A), EGFR WT; conditions: read-out: EGFR WT, potency code (IC50)
HER2 S310F [7] = target: T3, HER2 S310F; assay: Activity for inhibiting HER2 (Table B), HER2 S310F; conditions: read-out: HER2 S310F, potency code (IC50)
Method: as §3

EGFR V3 [8] = target: T1, EGFR V3; assay: Activity for inhibiting EGFR (Table A), EGFR V3 (EGFR-Viii); conditions: read-out: EGFR V3, potency code (IC50)

| Compound | IC50 (EGFR V3 [1]) | IC50 (HER2 YVMA [2]) | IC50 (HER2 S310F [3]) | IC50 (EGFR WT [4]) | IC50 (HER2 YVMA [5]) | IC50 (EGFR WT [6]) | IC50 (HER2 S310F [7]) | IC50 (EGFR V3 [8]) |
| --- | --- | --- | --- | --- | --- | --- | --- | --- |
| C=CC(=O)Nc1cc2c(Nc3ccc(OCc4ccccn4)c(Cl)c3)ncnc2cc1OC[C@H]1COCCN1 [compound 90, N-(4-((3-chloro-4-(pyridin-2-ylmethoxy)phenyl)amino)-7-(morpholin-3-ylmethoxy)quinazolin-6-yl)acrylamide] | 30 to 50 nM | 100 to 200 nM | 20 to 30 nM | 500 to 1000 nM | 100 to 200 nM | 500 to 1000 nM | 20 to 30 nM | 30 to 50 nM |
| C=CC(=O)Nc1cc2c(Nc3ccc(Oc4ccccc4)c(Cl)c3)ncnc2cc1O[C@@H]1CCN(C)C1 [compound 91, (R)-N-(4-((3-chloro-4-phenoxyphenyl)amino)-7-((1-methylpyrrolidin-3-yl)oxy)quinazolin-6-yl)acrylamide] | 50 to 100 nM | 200 to 300 nM | 30 to 50 nM | 500 to 1000 nM | 200 to 300 nM | 500 to 1000 nM | 30 to 50 nM | 50 to 100 nM |
| C=CC(=O)Nc1cc2c(Nc3ccc(OCc4ccccn4)c(Cl)c3)ncnc2cc1OCCN1CCC2C1CCN2C (stereo not drawn) [compound 92, N-(4-((3-chloro-4-(pyridin-2-ylmethoxy)phenyl)amino)-7-(2-(4-methylhexahydropyrrolo[3,2-b]pyrrol-1(2H)-yl)ethoxy)quinazolin-6-yl)acrylamide] | 30 to 50 nM | 100 to 200 nM | 20 to 30 nM | 100 to 200 nM | 100 to 200 nM | 100 to 200 nM | 20 to 30 nM | 30 to 50 nM |
| C=CC(=O)Nc1cc2c(Nc3ccc(OCc4ccccn4)c(Cl)c3)ncnc2cc1N1CC(N(C)C)C1 [compound 93, N-(4-((3-chloro-4-(pyridin-2-ylmethoxy)phenyl)amino)-7-(3-(dimethylamino)azetidin-1-yl)quinazolin-6-yl)acrylamide] | 200 to 300 nM | > 1000 nM | 500 to 1000 nM | > 1000 nM | > 1000 nM | > 1000 nM | 500 to 1000 nM | 200 to 300 nM |
| C=CC(=O)Nc1cc2c(Nc3ccc(OCc4ccccn4)c(Cl)c3)ncnc2cc1OCC(C)(C)N(C)C [compound 94, N-(4-((3-chloro-4-(pyridin-2-ylmethoxy)phenyl)amino)-7-(2-(dimethylamino)-2-methylpropoxy)quinazolin-6-yl)acrylamide] | 30 to 50 nM | 300 to 500 nM | 30 to 50 nM | 300 to 500 nM | 300 to 500 nM | 300 to 500 nM | 30 to 50 nM | 30 to 50 nM |
| C=CC(=O)Nc1cc2c(Nc3ccc(OCc4ccccn4)c(Cl)c3)ncnc2cc1OCC[C@H]1CCCN1C [compound 95, N-(4-((3-chloro-4-(pyridin-2-ylmethoxy)phenyl)amino)-7-(2-(1-methylpyrrolidin-2-yl)ethoxy)quinazolin-6-yl)acrylamide] | 20 to 30 nM | 30 to 50 nM | 5 to 10 nM | 100 to 200 nM | 30 to 50 nM | 100 to 200 nM | 5 to 10 nM | 20 to 30 nM |
| C=CC(=O)Nc1cc2c(Nc3cnc(NCc4ccccn4)c(Cl)c3)ncnc2cc1OCCN1CCOCC1 [compound 97, N-(4-((5-chloro-6-((pyridin-2-ylmethyl)amino)pyridin-3-yl)amino)-7-(2-morpholinoethoxy)quinazolin-6-yl)acrylamide] | 50 to 100 nM | 500 to 1000 nM | 200 to 300 nM | 500 to 1000 nM | 500 to 1000 nM | 500 to 1000 nM | 200 to 300 nM | 50 to 100 nM |
| C=CC(=O)Nc1cc2c(Nc3ccc(OCc4ccccn4)c(Cl)c3)ncnc2cc1OCC1(CN(C)C)CC1 [compound 98, N-(4-((3-chloro-4-(pyridin-2-ylmethoxy)phenyl)amino)-7-((1-((dimethylamino)methyl)cyclopropyl)methoxy)quinazolin-6-yl)acrylamide] | 30 to 50 nM | 200 to 300 nM | 20 to 30 nM | 200 to 300 nM | 200 to 300 nM | 200 to 300 nM | 20 to 30 nM | 30 to 50 nM |
| C=CC(=O)Nc1cc2c(Nc3ccc(OCc4ccccn4)c(Cl)c3)ncnc2cc1O[C@H]1CCCN(C)CC1 [compound 99, N-(4-((3-chloro-4-(pyridin-2-ylmethoxy)phenyl)amino)-7-((1-methylazepan-4-yl)oxy)quinazolin-6-yl)acrylamide] | 20 to 30 nM | 200 to 300 nM | 30 to 50 nM | 200 to 300 nM | 200 to 300 nM | 200 to 300 nM | 30 to 50 nM | 20 to 30 nM |
| C=CC(=O)Nc1cc2c(Nc3cc(C)c(OCc4ccccn4)cc3F)ncnc2cc1OCCN1CCOCC1 [compound 100, N-(4-((2-fluoro-5-methyl-4-(pyridin-2-ylmethoxy)phenyl)amino)-7-(2-morpholinoethoxy)quinazolin-6-yl)acrylamide] | 30 to 50 nM | 300 to 500 nM | 50 to 100 nM | 300 to 500 nM | 300 to 500 nM | 300 to 500 nM | 50 to 100 nM | 30 to 50 nM |
| C=CC(=O)Nc1cc2c(Nc3ccc(OCc4ccccn4)c(Cl)c3)ncnc2cc1OC[C@H]1CCN(C)C1 [compound 101, N-(4-((3-chloro-4-(pyridin-2-ylmethoxy)phenyl)amino)-7-((1-methylpyrrolidin-3-yl)methoxy)quinazolin-6-yl)acrylamide] | 10 to 20 nM | 30 to 50 nM | 10 to 20 nM | 100 to 200 nM | 30 to 50 nM | 100 to 200 nM | 10 to 20 nM | 10 to 20 nM |
| C=CC(=O)Nc1cc2c(Nc3ccc(OCc4ccccn4)c(Cl)c3)ncnc2cc1OC[C@H]1C[C@@H]2CN(C)C[C@@H]2C1 [compound 103, N-(4-((3-chloro-4-(pyridin-2-ylmethoxy)phenyl)amino)-7-(((3aR,5s,6aS)-2-methyloctahydrocyclopenta[c]pyrrol-5-yl)methoxy)quinazolin-6-yl)acrylamide] | 30 to 50 nM | 50 to 100 nM | 10 to 20 nM | 200 to 300 nM | 50 to 100 nM | 200 to 300 nM | 10 to 20 nM | 30 to 50 nM |
| C=CC(=O)Nc1cc2c(Nc3ccc(Oc4ccc(C)nc4)c(C)c3)ncnc2cc1C#C[C@@H]1[C@H]2CN(C)C[C@@H]12 [compound 104, N-(7-(((1R,5S,6s)-3-methyl-3-azabicyclo[3.1.0]hexan-6-yl)ethynyl)-4-((3-methyl-4-((6-methylpyridin-3-yl)oxy)phenyl)amino)quinazolin-6-yl)acrylamide] | 30 to 50 nM | 30 to 50 nM | 30 to 50 nM | 20 to 30 nM | 30 to 50 nM | 20 to 30 nM | 30 to 50 nM | 30 to 50 nM |
| C=CC(=O)Nc1cc2c(Nc3ccc(OCc4ccccn4)c(Cl)c3)ncnc2cc1C#CC1[C@H]2CNC[C@@H]12 (stereo partly drawn) [compound 105, N-(7-((1R,5S,6s)-3-azabicyclo[3.1.0]hexan-6-ylethynyl)-4-((3-chloro-4-(pyridin-2-ylmethoxy)phenyl)amino)quinazolin-6-yl)acrylamide] | 50 to 100 nM | 100 to 200 nM | 30 to 50 nM | 500 to 1000 nM | 100 to 200 nM | 500 to 1000 nM | 30 to 50 nM | 50 to 100 nM |
| C=CC(=O)Nc1cc2c(Nc3ccc(Oc4ccccc4)cc3)ncnc2cc1C#C[C@@H]1[C@H]2CN(C)C[C@@H]12 [compound 106, N-(7-(((1R,5S,6s)-3-methyl-3-azabicyclo[3.1.0]hexan-6-yl)ethynyl)-4-((4-phenoxyphenyl)amino)quinazolin-6-yl)acrylamide] | 30 to 50 nM | 100 to 200 nM | 30 to 50 nM | 100 to 200 nM | 100 to 200 nM | 100 to 200 nM | 30 to 50 nM | 30 to 50 nM |
